Measured values from PMC8433052 (iScience, 2021).
Like-named read-outs stand apart in the source and are kept apart here.

Experiments:
HCoV-OC43 [1] = test: Immunofluorescence assay of viral nucleoprotein, HCoV-OC43 in A549/TMPRSS2 cells; format: cell-based, Human coronavirus OC43; settings: HCoV-OC43 MOI 1, 48 hpi
[2] = Cytotoxicity against A549/TMPRSS2 cells; format: cell-based; settings: human
Experimental: (§1) The MTT (3-[4,5-dimethyl-2-thiazolyl]-2,5-diphenyl-2H-tetrazolium bromide) and resazurin reduction assays were carried out as previously described ([Nobori et al., 2018]; [Sanaki et al., 2019]). These were performed to calculate cell viability following viral induced CPE or cytotoxicity. Assay conditions for flaviviruses are as described in Table 2.

SARS-CoV-2 [3] = test: qRT-PCR of viral RNA, SARS-CoV-2-infected Caco-2 cells; format: cell-based; settings: MOI 0.1, 48 hpi
SARS-CoV-2 [4] = test: qRT-PCR analysis of SARS-CoV-2 in Caco-2 cells (rescreening, supernatant viral RNA); format: cell-based; settings: Severe acute respiratory syndrome coronavirus 2; qRT-PCR analysis using Caco-2 cells, MOI 0.1, 48 h
ZIKV = test: CPE-based antiviral assay (MTT), ZIKV in BHK-21; format: cell-based; settings: Zika virus, BHK-21, 72 h, read-out: EC50 against ZIKV
[5] = Cytotoxicity against Huh7 cells; format: cell-based; settings: human
Experimental: as §1

[6] = Cytotoxicity assay in BHK-21 cells; format: cell-based, Hamster; settings: hamster
BHK-21 cells = test: Cytotoxicity assay in BHK-21 cells; format: cell-based, Hamster; settings: concentrations up to 20 μM
HCoV-229E [7] = test: Resazurin reduction assay, HCoV-229E-infected MRC5 cells; settings: for EC50: Human coronavirus 229E
SARS-CoV [8] = format: cell-based; settings: Caco-2 cells, MOI 0.1, 48 hpi
SARS-CoV-2 [9] = test: Immunofluorescence assay of viral spike protein, SARS-CoV-2 in MRC5/ACE2 cells; format: cell-based
HCoV-OC43 [10] = test: Resazurin reduction assay, HCoV-OC43-infected MRC5 cells
HCoV-OC43 [11] = format: cell-based, Human coronavirus OC43
DENV1 = test: CPE-based antiviral assay (resazurin), DENV1 in BHK-21; format: cell-based, Dengue virus 1; settings: Dengue virus, DENV1, BHK-21, 120 h, read-out: EC50 against DENV1
HCoV-229E [12] = test: qRT-PCR of viral RNA, HCoV-229E-infected Huh7 cells; format: cell-based, Human coronavirus 229E; settings: MOI 0.05, 48 hpi, serially diluted compound
SARS-CoV-2 [13] = format: cell-based
[14] = Cytotoxicity against MRC5 cells; format: cell-based, Human; settings: human, rescreening (Table 3), read-out: CC50
Experimental: as §1

MRC5 cells = test: Cytotoxicity against MRC5 cells; format: cell-based, Human; settings: mean from three independent experiments (Table 4), read-out: CC50 MRC5, mean
Experimental: as §1

DENV4 = test: CPE-based antiviral assay (resazurin), DENV4 in BHK-21; format: cell-based, Dengue virus 4; settings: Dengue virus, DENV4, BHK-21, 120 h, read-out: EC50 against DENV4
[15] = Cytotoxicity against Caco-2 cells; format: cell-based; settings: human
Experimental: as §1

[16] = Cytotoxicity against VeroE6/TMPRSS2 cells; format: cell-based; settings: African green monkey
Experimental: as §1

SARS-CoV [17] = format: cell-based; settings: supernatants of SARS-CoV-infected Caco-2 cells, 0.5 μM, 48 hpi
SARS-CoV-2 [18] = test: Time-of-addition assay, SARS-CoV-2 in Caco-2 cells; format: cell-based; settings: 1 μM added at 3 hpi, read at 24 hpi
Experimental: The time-of-addition assay was performed according to previous reports ([Ohashi et al., 2021]; [Wang et al., 2020]). Briefly, Caco-2 cells were seeded on the day before SARS-CoV-2 infection (MOI of 0.1) and compound treatment. One micromolar HMTU or DMSO was then added at the indicated time points (Whole, Entry, and Post-entry). For “Whole” treatment, the cells were incubated with both the compound and virus for 1 h. After incubation, unbound viruses were removed, and the cells were cultured with HMTU-containing medium for 2 h to allow viral entry. At 3 hpi, culture supernatants were replaced with new HMTU-containing media and maintained until the end of the experiment. For “Entry” treatment, the cells were incubated as described above, and at 3 hpi, HMTU-containing media were replaced with fresh culture media and maintained until the end of the experiments. For “Post-entry” treatment, HMTU was added to the virus-infected cells at 3 hpi and maintained until the end of the experiment. At 24 hpi, total RNA was isolated, and viral RNA was quantified using qRT–PCR analysis as described above. Supernatants were collected, after which serial dilutions of these supernatants were used to inoculate a monolayer of the VeroE6/TMPRSS2 cells. Three days after inoculation, the CPE was scored, and TCID50/mL was calculated to measure viral titers.

SARS-CoV [19] = format: cell-based; settings: MRC5/ACE2 cells, 1 μM, 48 hpi
WNV = test: CPE-based antiviral assay (MTT), WNV in BHK-21; format: cell-based; settings: West Nile virus, BHK-21, 72 h, read-out: EC50 against WNV
HCoV-OC43 [20] = test: qRT-PCR of viral RNA, HCoV-OC43-infected Huh7 cells; format: cell-based, Human coronavirus OC43; settings: MOI 0.1, 48 hpi, serially diluted compound
YFV = test: microbe, parasite or virus in culture; format: cell-based; settings: Yellow fever virus, BHK-21, 72 h, read-out: EC50 against YFV
JEV = test: CPE-based antiviral assay (MTT), JEV in BHK-21; format: cell-based; settings: Japanese encephalitis virus, BHK-21, 72 h, read-out: EC50 against JEV
DENV2 = test: CPE-based antiviral assay (resazurin), DENV2 in BHK-21; format: cell-based, Dengue virus 2; settings: Dengue virus, DENV2, BHK-21, 96 h, read-out: EC50 against DENV2
DENV3 = test: CPE-based antiviral assay (resazurin), DENV3 in BHK-21; format: cell-based, Dengue virus 3; settings: Dengue virus, DENV3, BHK-21, 120 h, read-out: EC50 against DENV3
[21] = MRC5 cells, resazurin reduction assay

In the case of `Nc1ncnc2c1c(CO)cn2[C@@H]1O[C@H](CO)[C@@H](O)[C@H]1O` [HUP1108, 5-hydroxymethyltubercidin], the “positive signals of viral nucleoprotein (IFA)” value (HCoV-OC43 [1]) is reported as “decreased in a dose-dependent fashion”, the CC50 [2] is reported as over 20 µM and the “SARS-CoV-2 RNA replication, subgenomic (nucleocapsid) and genomic (RdRp) transcripts” value (SARS-CoV-2 [3]) is reported as “inhibited in a dose-dependent manner”. It also gave an EC90 (SARS-CoV-2 [4]) of 0.57 µM, an EC50 (ZIKV) of 1.3 µM and a CC50 [5] of over 20 µM. For the same compound, the CC50 [6] was over 20 µM, the “cytotoxicity (in words)” value (BHK-21 cells) was “did not exhibit cytotoxicity” and the EC50 (HCoV-229E [7]; MRC5, read-out: HCoV-229E EC50) was 0.43 µM. The EC50 (HCoV-229E [7]; MRC5, read-out: HCoV-229E EC50, mean) was 0.528 µM, the “selectivity index (SI = CC50/EC50) for HCoV-229E” value (HCoV-229E [7]; MRC5 cells) was over 94 and the “anti-HCoV-229E activity (in words)” value (HCoV-229E [7]; [21]) was “strong antiviral activities”. The “SARS-CoV RNA replication, subgenomic (nucleocapsid) and genomic (RdRp) transcripts” value (SARS-CoV [8]) was “inhibited in a dose-dependent manner”, the “viral spike protein expression (IFA)” value (SARS-CoV-2 [9]) was “significantly inhibited” and the EC50 (HCoV-OC43 [10]; Betacoronavirus 1, OC43, MRC5, read-out: HCoV-OC43 EC50) was 0.35 µM. The EC50 (HCoV-OC43 [10]; Betacoronavirus 1, OC43, MRC5, read-out: HCoV-OC43 EC50, mean) was 0.378 µM, the “selectivity index (SI = CC50/EC50) for HCoV-OC43” value (HCoV-OC43 [10]; MRC5 cells) was over 132 and the “anti-HCoV-OC43 activity (in words)” value (HCoV-OC43 [10]; [21]) was “strong antiviral activities”. For the same compound, the “reduction in progeny virus titer” value (HCoV-OC43 [11]) was over 1 log, the EC50 (DENV1) was 0.35 µM and the “HCoV-229E replication, subgenomic (nucleocapsid) and genomic (ORF1b) RNA transcripts” value (HCoV-229E [12]) was “dose-dependent inhibition”. For the same compound, the “reduction of progeny virus titer” value (SARS-CoV-2 [13]) was “more than 1 log TCID50/mL”, the CC50 [14] was over 50 µM and the CC50 (MRC5 cells) was over 50 µM. It also gave an EC50 (DENV4) of 0.52 µM, a CC50 [15] of over 20 µM and a CC50 [16] of over 20 µM. The “reduction of progeny virus titer” value (SARS-CoV [17]) was “more than 1 log TCID50/mL”, the “intracellular and extracellular viral RNAs, post-entry step” value (SARS-CoV-2 [18]) was “significantly reduced” and the “viral spike protein expression (IFA)” value (SARS-CoV [19]) was “significantly inhibited”. For the same compound, the EC50 (WNV) was 0.95 µM, the “HCoV-OC43 replication, subgenomic (nucleocapsid) and genomic (ORF1b) RNA transcripts” value (HCoV-OC43 [20]) was “dose-dependent inhibition” and the EC50 (YFV) was 0.27 µM. It also gave an EC50 (JEV) of 0.5 µM, an EC50 (DENV2) of 0.24 µM and an EC50 (DENV3) of 0.42 µM.
